Measured values taken from patent publication US20070003585A1, “Topical skin treating compositions” (STIEFEL LABORATORIES, INC., priority 2005, published 2007).
Where two headings read alike, the source gives them in different places.

What was measured:
[1] = Storage stability of composition containing 2.15% of benzoyl peroxide, […] of tazarotene, and […] of clindamycin (Example 8); type: physicochemical; conditions: Example 8 composition, initial 2.15%, 6 months
[2] = Storage stability of composition containing 2.02% of benzoyl peroxide, […] of tazarotene, and […] of clindamycin (Example 9); type: physicochemical; conditions: Example 9 composition, initial 2.02%
[3] = Storage stability of composition containing 2.02% of benzoyl peroxide and 0.099% of tazarotene (Example 17); type: physicochemical; conditions: Example 17 composition, initial 2.02%
Description: (§1) The results are as follows:

[4] = Storage stability of composition containing 5.18% of benzoyl peroxide and 0.099% of tazarotene (Example 18); type: physicochemical; conditions: Example 18 composition, initial 5.18%
Description: as §1

[5] = Example 6 composition, initial 5.54%
[6] = Example 7 composition, initial 5.22%
[7] = Example 10 composition, initial 1.54%
[8] = Example 11 composition, initial […]
[9] = Example 12 composition, initial […]
[10] = Example 13 composition, initial […]

Structure (SMILES): O=C(OOC(=O)c1ccccc1)c1ccccc1 [Benzoyl Peroxide]
- Benzoyl Peroxide (BPO) (as % w/w) ([1]; 6° C.): 2.13 % w/w
- Benzoyl Peroxide (BPO) (as % w/w) ([1]; 25° C.): 2.00 % w/w
- Benzoyl Peroxide (BPO) (as % w/w) ([1]; 30° C.): 2.05 % w/w
- Benzoyl Peroxide (BPO) (as % w/w) ([1]; 40° C.): 1.69 % w/w
- Benzoyl Peroxide (BPO) (as % w/w) ([2]; 6 months, 6° C.): 2.10 % w/w
- Benzoyl Peroxide (BPO) (as % w/w) ([2]; 6 months, 25° C.): 2.00 % w/w
- Benzoyl Peroxide (BPO) (as % w/w) ([2]; 6 months, 30° C.): 1.94 % w/w
- Benzoyl Peroxide (BPO) (as % w/w) ([2]; 6 months, 40° C.): 1.45 % w/w
- Benzoyl Peroxide (BPO) (as % w/w) ([2]; 90 days, 6° C.): 2.02 % w/w
- Benzoyl Peroxide (BPO) (as % w/w) ([2]; 90 days, 25° C.): 1.97 % w/w
- Benzoyl Peroxide (BPO) (as % w/w) ([2]; 90 days, 30° C.): 1.97 % w/w
- Benzoyl Peroxide (BPO) (as % w/w) ([2]; 90 days, 40° C.): 1.73 % w/w
- Benzoyl peroxide (as % w/w) ([3]; 6 months, 6° C.): 2.07 % w/w
- Benzoyl peroxide (as % w/w) ([3]; 6 months, 25° C.): 2.03 % w/w
- Benzoyl peroxide (as % w/w) ([3]; 6 months, 30° C.): 2.05 % w/w
- Benzoyl peroxide (as % w/w) ([3]; 6 months, 40° C.): 1.94 % w/w
- Benzoyl peroxide (as % w/w) ([3]; 90 days, 6° C.): 2.09 % w/w
- Benzoyl peroxide (as % w/w) ([3]; 90 days, 25° C.): 2.06 % w/w
- Benzoyl peroxide (as % w/w) ([3]; 90 days, 30° C.): 2.07 % w/w
- Benzoyl peroxide (as % w/w) ([3]; 90 days, 40° C.): 2.01 % w/w
- Benzoyl peroxide (as % w/w) ([4]; 6 months, 6° C.): 5.2 % w/w
- Benzoyl peroxide (as % w/w) ([4]; 6 months, 25° C.): 5.14 % w/w
- Benzoyl peroxide (as % w/w) ([4]; 6 months, 30° C.): 5.02 % w/w
- Benzoyl peroxide (as % w/w) ([4]; 6 months, 40° C.): 4.81 % w/w
- Benzoyl peroxide (as % w/w) ([4]; 90 days, 6° C.): 5.25 % w/w
- Benzoyl peroxide (as % w/w) ([4]; 90 days, 25° C.): 5.23 % w/w
- Benzoyl peroxide (as % w/w) ([4]; 90 days, 30° C.): 5.30 % w/w
- Benzoyl peroxide (as % w/w) ([4]; 90 days, 40° C.): 5.16 % w/w
- Benzoyl Peroxide (BPO) (as % w/w) ([5]; 2 weeks, 25° C.): 5.43 % w/w
- Benzoyl Peroxide (BPO) (as % w/w) ([5]; 2 weeks, 30° C.): 5.35 % w/w
- Benzoyl Peroxide (BPO) (as % w/w) ([5]; 2 weeks, 40° C.): 5.34 % w/w
- Benzoyl Peroxide (BPO) (as % w/w) ([5]; 90 days, 6° C.): 5.48 % w/w
- Benzoyl Peroxide (BPO) (as % w/w) ([5]; 90 days, 25° C.): 5.34 % w/w
- Benzoyl Peroxide (BPO) (as % w/w) ([5]; 90 days, 30° C.): 5.33 % w/w
- Benzoyl Peroxide (BPO) (as % w/w) ([5]; 90 days, 40° C.): 5.19 % w/w
- Benzoyl Peroxide (BPO) (as % w/w) ([6]; 2 weeks, 6° C.): 5.22 % w/w
- Benzoyl Peroxide (BPO) (as % w/w) ([6]; 2 weeks, 25° C.): 5.24 % w/w
- Benzoyl Peroxide (BPO) (as % w/w) ([6]; 2 weeks, 30° C.): 5.23 % w/w
- Benzoyl Peroxide (BPO) (as % w/w) ([6]; 2 weeks, 40° C.): 5.12 % w/w
- Benzoyl Peroxide (BPO) (as % w/w) ([6]; 6 months, 6° C.): 5.16 % w/w
- Benzoyl Peroxide (BPO) (as % w/w) ([6]; 6 months, 25° C.): 4.80 % w/w
- Benzoyl Peroxide (BPO) (as % w/w) ([6]; 6 months, 30° C.): 4.91 % w/w
- Benzoyl Peroxide (BPO) (as % w/w) ([6]; 6 months, 40° C.): 4.59 % w/w
- Benzoyl Peroxide (BPO) (as % w/w) ([7]; 6 months, 6° C.): 1.50 % w/w
- Benzoyl Peroxide (BPO) (as % w/w) ([7]; 6 months, 25° C.): 1.40 % w/w
- Benzoyl Peroxide (BPO) (as % w/w) ([7]; 6 months, 30° C.): 1.40 % w/w
- Benzoyl Peroxide (BPO) (as % w/w) ([7]; 6 months, 40° C.): 1.03 % w/w
- Benzoyl Peroxide (BPO) (as % w/w) ([7]; 90 days, 6° C.): 1.50 % w/w
- Benzoyl Peroxide (BPO) (as % w/w) ([7]; 90 days, 25° C.): 1.44 % w/w
- Benzoyl Peroxide (BPO) (as % w/w) ([7]; 90 days, 30° C.): 1.42 % w/w
- Benzoyl Peroxide (BPO) (as % w/w) ([7]; 90 days, 40° C.): 1.28 % w/w
- Benzoyl Peroxide (BPO) (as % w/w) ([8]; 2 weeks, 6° C.): 0.99 % w/w
- Benzoyl Peroxide (BPO) (as % w/w) ([8]; 2 weeks, 25° C.): 0.95 % w/w
- Benzoyl Peroxide (BPO) (as % w/w) ([8]; 2 weeks, 40° C.): 0.94 % w/w
- Benzoyl Peroxide (BPO) (as % w/w) ([8]; 6 months, 6° C.): 0.99 % w/w
- Benzoyl Peroxide (BPO) (as % w/w) ([8]; 6 months, 25° C.): 0.91 % w/w
- Benzoyl Peroxide (BPO) (as % w/w) ([8]; 6 months, 40° C.): 0.35 % w/w
- Benzoyl Peroxide (BPO) (as % w/w) ([8]; 30 days, 6° C.): 0.98 % w/w
- Benzoyl Peroxide (BPO) (as % w/w) ([8]; 30 days, 25° C.): 0.95 % w/w
- Benzoyl Peroxide (BPO) (as % w/w) ([8]; 30 days, 40° C.): 0.90 % w/w
- Benzoyl Peroxide (BPO) (as % w/w) ([8]; 90 days, 6° C.): 0.99 % w/w
- Benzoyl Peroxide (BPO) (as % w/w) ([8]; 90 days, 25° C.): 0.93 % w/w
- Benzoyl Peroxide (BPO) (as % w/w) ([8]; 90 days, 40° C.): 0.69 % w/w
- Benzoyl Peroxide (BPO) (as % w/w) ([9]; 2 weeks, 6° C.): 0.99 % w/w
- Benzoyl Peroxide (BPO) (as % w/w) ([9]; 2 weeks, 25° C.): 0.97 % w/w
- Benzoyl Peroxide (BPO) (as % w/w) ([9]; 2 weeks, 30° C.): 0.97 % w/w
- Benzoyl Peroxide (BPO) (as % w/w) ([9]; 2 weeks, 40° C.): 0.94 % w/w
- Benzoyl Peroxide (BPO) (as % w/w) ([9]; 6 months, 6° C.): 1.01 % w/w
- Benzoyl Peroxide (BPO) (as % w/w) ([9]; 6 months, 25° C.): 0.95 % w/w
- Benzoyl Peroxide (BPO) (as % w/w) ([9]; 6 months, 30° C.): 0.92 % w/w
- Benzoyl Peroxide (BPO) (as % w/w) ([9]; 6 months, 40° C.): 0.40 % w/w
- Benzoyl Peroxide (BPO) (as % w/w) ([9]; 90 days, 6° C.): 1.00 % w/w
- Benzoyl Peroxide (BPO) (as % w/w) ([9]; 90 days, 25° C.): 0.94 % w/w
- Benzoyl Peroxide (BPO) (as % w/w) ([9]; 90 days, 30° C.): 0.93 % w/w
- Benzoyl Peroxide (BPO) (as % w/w) ([9]; 90 days, 40° C.): 0.73 % w/w
- Benzoyl Peroxide (BPO) (as % w/w) ([10]; 2 weeks, 6° C.): 0.99 % w/w
- Benzoyl Peroxide (BPO) (as % w/w) ([10]; 2 weeks, 25° C.): 0.98 % w/w
- Benzoyl Peroxide (BPO) (as % w/w) ([10]; 2 weeks, 30° C.): 0.98 % w/w
- Benzoyl Peroxide (BPO) (as % w/w) ([10]; 2 weeks, 40° C.): 0.96 % w/w
- Benzoyl Peroxide (BPO) (as % w/w) ([10]; 6 months, 6° C.): 1.02 % w/w
- Benzoyl Peroxide (BPO) (as % w/w) ([10]; 6 months, 25° C.): 0.96 % w/w
- Benzoyl Peroxide (BPO) (as % w/w) ([10]; 6 months, 30° C.): 0.91 % w/w
- Benzoyl Peroxide (BPO) (as % w/w) ([10]; 6 months, 40° C.): 0.40 % w/w
- Benzoyl Peroxide (BPO) (as % w/w) ([10]; 90 days, 6° C.): 1.02 % w/w
- Benzoyl Peroxide (BPO) (as % w/w) ([10]; 90 days, 25° C.): 0.99 % w/w
- Benzoyl Peroxide (BPO) (as % w/w) ([10]; 90 days, 30° C.): 0.95 % w/w
- Benzoyl Peroxide (BPO) (as % w/w) ([10]; 90 days, 40° C.): 0.73 % w/w
